The target in one assay is GDP-loaded KRAS-G12V (Homo sapiens, UniProt P01116, G12V). The experiment in a line: KRAS (GDP) biochemical TR-FRET probe displacement assay, G12V. Particulars: 2 hours at room temperature. It is filed as binding. Here is the method: (§1) • Compounds were tested for binding to GDP-loaded wild-type KRAS (WT), KRAS-G12C, KRAS-G12D, and KRAS-G12V in a 384-well assay format using a TR-FRET probe displacement assay in buffer consisting of 50 mM Hepes (pH 7.4), 150 mM NaCl. 5 mM MgCl2 and 0.005% Tween-20. 0.03 nM KRAS was used in this assay with 0.02 nM Eu-streptavidin and 12 nM Cy-5 labelled probe. Compounds were serially diluted (1:3) in DMSO. The LabCyte ECHO Acoustic dispenser was used to pre-spot the assay plates (384-well Non-Binding Surface plates, Corning, Catalog #3824) with 50 nL of compound. 5 μL of 2× enzyme concentration was added to the pre-spotted plates and incubated for 30 minutes before adding 5 μL of 2× concentration of Eu-streptavidin and Cy-5 labelled probe (10 μL final reaction volume). The plates were incubated at room temperature for 2 hours before measuring TR-FRET ratio (665 nm/615 nm) on the Envision multimode plate reader. The ratios were normalized to a positive (saturating concentration of known inhibitor) and negative (DMSO) control and plotted against the log of compound concentration. […]
Chain of GDP-loaded KRAS-G12V (P01116 1-188 isoform P01116-2 G12V): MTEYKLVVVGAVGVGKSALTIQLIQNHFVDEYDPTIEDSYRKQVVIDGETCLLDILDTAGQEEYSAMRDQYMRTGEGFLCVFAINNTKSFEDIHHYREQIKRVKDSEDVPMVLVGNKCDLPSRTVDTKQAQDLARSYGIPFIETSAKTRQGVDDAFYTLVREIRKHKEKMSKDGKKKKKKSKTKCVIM
(TR-FRET usually uses a lanthanide donor and a delayed reading to cut background.)

The target of another assay is GDP-loaded KRAS-G12C (Homo sapiens, UniProt P01116, G12C). The experiment in a line: KRAS (GDP) biochemical TR-FRET probe displacement assay, G12C. Particulars: 2 hours at room temperature. It is filed as binding. Here is the method: as §1
Chain of GDP-loaded KRAS-G12C (P01116 1-188 isoform P01116-2 G12C): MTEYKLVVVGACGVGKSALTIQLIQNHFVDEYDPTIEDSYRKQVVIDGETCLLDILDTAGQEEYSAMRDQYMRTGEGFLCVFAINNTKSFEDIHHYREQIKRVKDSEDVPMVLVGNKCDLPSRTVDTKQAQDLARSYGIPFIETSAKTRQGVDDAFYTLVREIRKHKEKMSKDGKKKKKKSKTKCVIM
A further assay has as its target GDP-loaded KRAS-G12D (Homo sapiens, UniProt P01116, G12D). The experiment in a line: KRAS (GDP) biochemical TR-FRET probe displacement assay, G12D. It is filed as binding. As to conditions: 2 hours at room temperature. Here is the method: as §1
Assay [1] deals with cellular pERK in NCI-H441 (KRAS-G12V) cell-line. The experiment in a line: Cell based pERK assay, NCI-H441. Particulars: Homo sapiens; NCI-H441 (KRAS-G12V) cells, 2 hours compound incubation, HTRF Phospho-ERK1/2. As to the method:
(§2) Compounds were tested in a 384-well assay format for their ability to inhibit cellular pERK in Kuramochi (WT KRAS), MIA-PaCa-2 (KRAS-G12C), ASPC-1 (KRAS G12D), and NCI-H441 (KRAS-G12V) cell-lines. Compounds were serially diluted (1:3) in DMSO. On day −1, 80 μL of cells were plated per well in the 384 well tissue-culture plates (Greiner: Cat #781080) to seed 5000 cells per wells of AsPC-1 or 7500 cells of MIA-PaCa-2, NCI-H441, and Kuramochi cell lines in RPMI (Corning: Cat #10-040-CM) with 10% fetal bovine serum (FBS) (HyClone: Cat #SH30071-03) and IX penicillin-streptomycin-glutamate (PSG) (Corning: Cat #30-009-C1) for […] and Kuramochi cell lines and DMEM (Corning: Cat #15-018-CM) with 10% FBS and 1×PSG for MIA-PaCa-2 cell line. The plates were then incubated overnight at 37° C. and 5% CO2. On day 0, 400 nL of compound/well was added into the cell plates and mixed 5 times by pipetting using a Beckmann Biomek FX. The cell plates were then incubated for 2 hours at 37° C. and 5% CO2. HTRF Advanced Phospho-ERK1/2 (THR202/TYR204) Detection Kits (PerkinElmer: Cat #64AERPEG) were used to prepare the lysis and detection solution according to manufacturer protocol. Following the 2 hour incubation, 70 μL of medium was aspirated from the plates and 10 μL of lysis and detection solution was added to the plates using a Biotek EL406 washer and dispenser. Plates were sealed and stored overnight at room temperature. HTRF ratio (665 nm/615 nm) was read by Envision multimode reader (PerkinElmer) the next day. The TR-FRET ratios were normalized to a positive (saturating concentration of known inhibitor) and negative (DMSO) control and plotted against the log of compound concentration.

The target of assay [2] is GDP-loaded wild-type KRAS (WT) (Homo sapiens, UniProt P01116). Put plainly: KRAS (GDP) biochemical TR-FRET probe displacement assay, WT. It is filed as binding. Particulars: 2 hours at room temperature. As to the method: as §1
Chain of GDP-loaded wild-type KRAS (WT) (P01116 1-188 isoform P01116-2): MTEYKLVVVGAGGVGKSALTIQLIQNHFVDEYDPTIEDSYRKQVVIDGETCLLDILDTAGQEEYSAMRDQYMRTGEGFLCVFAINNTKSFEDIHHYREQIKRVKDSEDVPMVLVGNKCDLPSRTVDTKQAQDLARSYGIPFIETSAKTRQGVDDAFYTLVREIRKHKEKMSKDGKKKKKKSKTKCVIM
Assay [3] concerns cellular pERK in ASPC-1 (KRAS G12D) cell-line. The experiment in a line: Cell based pERK assay, ASPC-1. As to conditions: Homo sapiens, ASPC1, 2 h, ASPC-1 (KRAS G12D) cells, 2 hours compound incubation, HTRF Phospho-ERK1/2. As to the method: as §2
Assay [4] relates to cellular pERK in MIA-PaCa-2 (KRAS-G12C) cell-line. Put plainly: Cell based pERK assay, MIA-PaCa-2. As to conditions: Homo sapiens; MIA-PaCa-2 (KRAS-G12C) cells, 2 hours compound incubation, HTRF Phospho-ERK1/2; read-out: MIAPaCa2 pERK EC50. Here is the method: as §2
The test system of assay [5] is cellular pERK in Kuramochi (WT KRAS) cell-line. Put plainly: Cell based pERK assay, Kuramochi. As to conditions: 2 h, Kuramochi (WT KRAS) cells, 2 hours compound incubation, HTRF Phospho-ERK1/2. As to the method: as §2

Some results are limits rather than exact numbers.

Chain of GDP-loaded KRAS-G12D (P01116 1-188 isoform P01116-2 G12D): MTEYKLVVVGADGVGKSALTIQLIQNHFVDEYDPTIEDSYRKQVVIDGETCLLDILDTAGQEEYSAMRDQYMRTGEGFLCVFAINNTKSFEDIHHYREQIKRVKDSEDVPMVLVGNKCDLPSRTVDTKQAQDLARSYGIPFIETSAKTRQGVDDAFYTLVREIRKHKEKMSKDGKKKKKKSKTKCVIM

Consider `C#Cc1c(F)ccc2cc(N)cc(-c3ncc4c(N5CC6(F)CCC(F)(C5)N6)nc(OC[C@@]56CCCN5[C@H](COc5cc(C(F)(F)F)ncn5)CC6)nc4c3F)c12` [Example 5-2], for which the IC50 (commonly the concentration needed to halve the response being measured) worked out at 0.00432 µM on GDP-loaded KRAS-G12V, 0.00138 µM on GDP-loaded KRAS-G12C, 0.0103 µM at GDP-loaded KRAS-G12D and 0.00094 µM in assay [2]. For the same compound, the concentration giving a half-maximal response (EC50) (commonly the concentration that produces a half-maximal response) was 0.0272 µM in assay [1], 0.0639 µM in assay [3], 0.00324 µM in assay [4] and 0.00604 µM in assay [5].

Regarding `C#Cc1c(F)ccc2cc(N)cc(-c3ncc4c(N5CC6(F)CCC(F)(C5)N6)nc(OCC56CCCN5CCC6)nc4c3F)c12` [Example 5-3], the IC50 was determined as 0.0261 µM at GDP-loaded KRAS-G12V, 0.0067 µM at GDP-loaded KRAS-G12C, 0.0425 µM on GDP-loaded KRAS-G12D and 0.00662 µM in assay [2]. For the same compound, the EC50 in assay [1] was 0.278 µM; in assay [3] it was 0.76 µM; in assay [4], 0.0156 µM; in assay [5], 0.0116 µM.

As for `Cc1cc(N)nc(-c2c(F)cc3c(N4CC5(F)CCC(F)(C4)N5)nc(OC[C@@]45CCCN4C[C@H](F)C5)nc3c2F)c1C(F)(F)F` [Example 6-1, 6-(4-(1,5-difluoro-3,8-diazabicyclo[3.2.1]octan-3-yl)-6,8-difluoro-2-(((2R,7aS)-2-fluorotetrahydro-1H-pyrrolizin-7a(5H)-yl)methoxy)quinazolin-7-yl)-4-methyl-5-(trifluoromethyl)pyridin-2-amine], the IC50 (at GDP-loaded KRAS-G12V; at GDP-loaded KRAS-G12C; on GDP-loaded KRAS-G12D; in assay [2]) was more than 0.1 µM in each case. The EC50 in assay [1] was 0.616 µM; in assay [3], more than 1 µM; in assay [4], 0.35 µM; in assay [5], 0.0484 µM.

Regarding `Fc1cc2c(N3CC4(F)CCC(F)(C3)N4)nc(OC[C@@]34CCCN3C[C@H](F)C4)nc2c(F)c1-c1csc2ncnc(Cl)c12` [Example 6-2], the IC50 (at GDP-loaded KRAS-G12V; on GDP-loaded KRAS-G12C; on GDP-loaded KRAS-G12D; in assay [2]) was more than 0.1 µM each time. In addition, the EC50 in assay [1], in assay [3], in assay [4] and in assay [5] was more than 1 µM throughout.

As for `Cc1cc(N)nc(-c2c(Cl)cc3c(N4CC5(F)CCC(F)(C4)N5)nc(OC[C@@]45CCCN4C[C@H](F)C5)nc3c2F)c1C(F)(F)F` [Example 7-1], the concentration for half-maximal inhibition (IC50) at GDP-loaded KRAS-G12V was more than 0.1 µM; on GDP-loaded KRAS-G12C, more than 0.1 µM; on GDP-loaded KRAS-G12D, more than 0.1 µM; in assay [2] it was more than 0.0892 µM. Also, the EC50 in assay [1] was 0.672 µM; in assay [3], more than 1 µM; in assay [4] it was 0.233 µM; in assay [5], 0.0475 µM.

Regarding `Nc1cc2ccc(F)cc2c(-c2c(Cl)cc3c(N4CC5(F)CCC(F)(C4)N5)nc(OC[C@@]45CCCN4C[C@H](F)C5)nc3c2F)n1` [Example 7-2], the half-inhibitory concentration (IC50) (on GDP-loaded KRAS-G12V; on GDP-loaded KRAS-G12C; on GDP-loaded KRAS-G12D; in assay [2]) was more than 0.1 µM throughout. The EC50 in assay [1] was more than 1 µM; in assay [3] it was more than 1 µM; in assay [4], more than 1 µM; in assay [5], 0.524 µM.

On to `N#Cc1c(N)sc2c(F)ccc(-c3c(Cl)cc4c(N5CC6(F)CCC(F)(C5)N6)nc(OC[C@@]56CCCN5C[C@H](F)C6)nc4c3F)c12` [Example 7-3], for which the IC50 was found to be 0.00509 µM at GDP-loaded KRAS-G12V, 0.0017 µM on GDP-loaded KRAS-G12C, 0.0126 µM on GDP-loaded KRAS-G12D and 0.00063 µM in assay [2]. The EC50 is 0.00482 µM in assay [1], 0.0397 µM in assay [3], 0.0168 µM in assay [4] and 0.0052 µM in assay [5].

On to `Nc1nc2c(-c3c(Cl)cc4c(N5CC6(F)CCC(F)(C5)N6)nc(OC[C@@]56CCCN5C[C@H](F)C6)nc4c3F)ccc(F)c2s1` [Example 7-4], for which the IC50 at GDP-loaded KRAS-G12V was more than 0.0823 µM; at GDP-loaded KRAS-G12C, 0.0425 µM; on GDP-loaded KRAS-G12D it was more than 0.1 µM; in assay [2] it was 0.0143 µM. The half-maximal effective concentration (EC50) was 0.118 µM in assay [1], 0.459 µM in assay [3], 0.0428 µM in assay [4] and 0.0135 µM in assay [5].

For the compound `C#Cc1c(F)ccc2cc(N)nc(-c3c(Cl)cc4c(N5CC6(F)CCC(F)(C5)N6)nc(OC[C@@]56CCCN5C[C@H](F)C6)nc4c3F)c12` [Example 7-5], the IC50 (at GDP-loaded KRAS-G12V; at GDP-loaded KRAS-G12C; at GDP-loaded KRAS-G12D; in assay [2]) was more than 0.1 µM throughout. Also, the EC50 in assay [1] came out at 0.548 µM; in assay [3], 0.735 µM; in assay [4], 0.179 µM; in assay [5], 0.0218 µM.

(Values after US20250059208A1, “KRAS MODULATING COMPOUNDS” (priority 2023, published 2025).)
